Laboratory results published in patent US20190292246A1, “COMBINATION THERAPY OF A CELL BASED THERAPY AND A MICROGLIA IMHIBITOR” (JUNO THERAPEUTICS, INC., priority 2016, published 2019).

Assay: Non-human primate combination therapy: PLX3397, CD20 CAR T cells and cyclophosphamide preconditioning
Assay type: in vivo
Conditions: PLX3397 40 mg/kg twice daily from 30 days before to 21 days after cells; Rhesus macaques
Method: Animal subjects of the non-human primate (NHP), Macaca mulatta, which in aspects closely recapitulates the human immune system are administered cell therapy (T cells expressing a CAR targeting CD20), following administration of an agent to ameliorate toxicity. Thirty days prior to the initiation of cell therapy, T cells are isolated from peripheral blood of Rhesus macaques (n=3) and engineered via transduction with a viral vector encoding a CD20 chimeric antigen receptor (CAR), which is a tumor-associated or tumor-specific antigen, and optionally a detectable marker, such as GFP. […]
After preconditioning treatment, subjects receive a first dose of CAR-expressing cells by infusion that is less than or equal to about 1×10^7 cells/kg body weight at day 0. […] Optionally, at seven days after the administration of the of cells, the CAR-expressing cells are detected by flow cytometry and quantitative polymerase chain reaction (qPCR) to measure in vivo proliferation and persistence of the administered cells and B cell aplasia. […] Recipient animals are monitored for clinical signs and symptoms of one or more toxic outcomes or toxicities such as CRS and neurotoxicity, and data are collected longitudinally to determine CAR T cell expansion and persistence, B cell aplasia, as well as clinical labs of CRS and cytokine levels. […]

In the case of `FC(F)(F)c1ccc(CNc2ccc(Cc3c[nH]c4ncc(Cl)cc34)cn2)cn1` [PLX3397, 5-((5-chloro-1H-pyrrolo[2,3-b]pyridin-3-yl)methyl)-N-((6-(trifluoromethyl)pyridin-3-yl)methyl)pyridin-2-amine], the “symptoms of toxicity (CRS, neurotoxicity) after CAR T cell therapy” value is reported as “reduced or prevented”.
